# Laboratory results from patent US6031135A, “Trimethylsphingosine derivatives” (Oncomembrane, Inc., priority 1996, dated 2000).
# Tests used:
# [1] = tested on: B16BL6 melanoma cells; experiment: metastasis of B16BL6 melanoma cells (lung metastatic deposits in mice); type: in vivo, mouse; parameters: key to Inhibition of metastasis: +: effective; -: not effective
# Method: BL6 cells were injected into mice and metastatic deposits in the lung were assessed after various treatments including route and timing, of administration.
# [2] = water solubility; type: physicochemical; settings: particularly at physiologic pH
# [3] = tested on: HL60 cells; experiment: HL60 adhesion on activated platelet-coated solid phase; type: cell-based, human; settings: thrombin-stimulated and PMA-stimulated platelets
# Method: HL60 (a human promylelocytic cell line available from the ATCC under accession number CCL 240) adhesion on resting or activated platelet-coatedsolid phase was evaluated as follows. Each well of a 48-well plate (Costar Scientific, Cambridge, Mass.) was filled with a poly-L-lysine solution (100 μg/ml in PBS) and incubated for 1 hour. Each well then was washed with PBS and then 150 μl of PBS containing 6×10^7 resting or activated platelets were added to each well and the plate was incubated for 1 hour. Plates were centrifuged (300×g for 7 minutes) and incubated a further 30 minutes at room temperature. Bound platelets were fixed by addition of 0.1% (w/v) glutaraldehyde in PBS for 2 minutes at 4° C. Each well was washed with 10 mM glycine in PBS and plates were incubated with 5% (w/v) BSA containing 0.1% (w/v) sodium azide, 10 mM glycine in PBS for 1 hour at room temperature.
# [4] = tested on: 47 kDa and 65 kDa proteins; experiment: PMA-stimulated protein phosphorylation in 32P-labeled neutrophils; type: cell-based, human; settings: neutrophils pre-incubated with 15-45 μM, then 1.5 μM PMA
# Method: Excess unbound components were removed by centrifugation and the pellets were resuspended in the same buffer, repeating twice. The cells then were divided into 7 treatment groups, each containing ≈1×10^7 cells in a total volume of 0.4 ml. TMS, SPN or DMS was added to a suspension and incubated at 37° C. for 10 min, followed by addition of PMA to a final concentration of 1.5 μM. Two minutes later, the reaction was terminated by adding 0.1 ml of Laemmli sample buffer and 20 mM EDTA, followed by heating at 100° C. for 5 min. Aliquots were separated through 10% sodium dodecyl sulfate gels using known procedures. ^32 P incorporation was visualized by autoradiography.
# [5] = tested on: PK-C; settings: literature (Hannun & Bell; Merrill & Stevens); cited from earlier work
# [6] = tested on: platelets; experiment: platelet aggregation (aggregometer, thrombin or ADP); type: cell-based; parameters: key to Inhiition of PA: +: effective; -: not effective
# Method: Platelets were isolated from platelet-rich plasma (purchased from the Oregon Red Cross, Portland, Oreg.). Contaminating erythrocytes were removed by centrifugation (80×g for 10 minutes). Platelets were obtained by centrifugation (300×g for 10 minutes), washed once in Tyrode buffer (pH 6.5) containing 22 mM trisodium citrate and 0.35% (w/v) BSA and resuspended in the same buffer to obtain a concentration of 1-2×10^9 platelets/ml. All procedures were performed at room temperature.
# A suspension of platelets (about 3.5×10^8 /ml) in Tyrode buffer was preincubated with inhibitor compounds (H-7 [1-(5-isoquinolinylsulfonyl)-2-methylpiperazine, a synthetic protein kinase-C inhibitor purchased from Seikagaku America Inc., St. Petersburg, Fla.], Calphostin-C [a synthetic protein kinase-C inhibitor obtained from Dr. Saitoh, Kyowa Hakko Co., Ltd., Machida, Tokyo, Japan], sphingosine [purchased from Sigma, St. Louis, Mo.] and dimethylsphingosine and trimethylsphingosine [synthesized according to Igarashi et al., Biochem., 28, 6796, 1989]) followed by addition of thrombin or ADP (both purchased from Sigma). Platelet aggregation was evaluated by transmittance change using an aggregometer (Chrono-log Corp., Havertown, Pa.) equipped with a computer analyzer.
# [7] = tested on: PK-C; experiment: PK-C activity bioassay (histone III-S or myelin basic protein substrate); type: biochemical, human (A431 cells) or mouse brain; parameters: key: +: effective; -: not effective
# Method: In another in vitro assay, the influence of various compounds on PK-C activity was monitored. Certain tumor cells present high levels of PK-C activity. The human epidermoid carcinoma cell line A-431 (ATCC No. CRL 1555) was used in a bioassay for PK-C activity as described in Igarashi et al. (supra). Briefly, phosphatidylserine (5 μg/tube) and 1,2-diolein (0.05 μg/tube), with or without an appropriate quantity of a sphingosine derivative sample, were added in an organic solvent, ethanol or ethanol/chloroform, to a 1.5 ml tube (Sarstedt) and the mixture was evaporated under a N2 stream. The lipid mixture was sonicated in about 30 μl of 20 mM Tris-HCl (pH 7.5) for 30 minutes.
# The resulting liposomes were supplemented with a buffer mixture comprising 25 mM Tris-HCl (pH 7.5), 10 mM MgCl2, […], 50 μM EGTA, 500 μM CaCl2, […] histone III-S or myelin basic protein and 20 μM γ[^32 P]-ATP (2×10^6 cpm) to a final volume of about 90 μl. […]
# The precipitate was collected by centrifugation, washed twice with 1 ml of 25% TCA, then dissolved in 1 ml of 1 M NaOH containing 0.1% deoxycholate with slight heating (80° C. for ten minutes) and counted in a scintillation counter. […]
# [8] = Preincubation with free derivative
smiles,measurement,setting,value
CCCCCCCCCCCCCCCC(O)C(CO)[N+](C)(C)C (stereo not shown) [DHTMS],Inhibition of metastasis,[1]; Experimental and spontaneous metastasis with liposomal formulation,+
CCCCCCCCCCCCCC#CC(O)C(CO)[N+](C)(C)C (stereo not shown) [4-alkyn-TMS],Inhibition of metastasis,"[1]; B16BL6 melanoma cells, no readable footnote on the cell",+
"CCCCCCCCCCCCC/C=C/[C@@H](O)[C@@H](N)CO [sphingosine, Sphingosine]",water solubility,[2],less water soluble
same,HL60 cell binding,[3],minimally inhibited
same,phosphorylation of 47 kDa and 65 kDa proteins,[4],diminished significantly
same,PK-C activity,[5],inhibited
"CCCCCCCCCCCCC/C=C/C(O)C(CO)NC (stereo not shown) [MMS, N-monomethylsphingosine]",water solubility,[2],less water soluble
COC(=O)CCCCCCCCCCCC/C=C/[C@@H](O)[C@H](CO)[N+](C)(C)C [Methylcarboxy TMS],Inhibition of metastasis,[1]; [8],-
same,Inhiition of PA,[6],-
same,PKC inhibition,[7],-
"CCCCCCCCCCCCC/C=C/C(O)C(CO)N(C)C (stereo not shown) [DMS, N,N-dimethylsphingosine]",water solubility,[2],less water soluble
same,HL60 cell binding,[3],inhibited strongly
same,phosphorylation of 47 kDa and 65 kDa proteins,[4],diminished significantly
C[N+](C)(C)[C@@H](CO)[C@H](O)/C=C/CCCCCCCCCCCCC(=O)O [Carboxy TMS],Inhibition of metastasis,[1]; [8],-
same,Inhiition of PA,[6],-
same,PKC inhibition,[7],-
